Assays:
EGFR = target: T1, EGFR (Homo sapiens, UniProt P00533); test: EGFR Kinase Assay; assay type: biochemical; details: for IC50: GST-EGFR, ATP 5 μM; for inhibition at 2 µM: test concentration of 2 μM, compounds without an IC50, read-out: EGFR inhibition in percent
T1 construct: The intracellular portion of EGFR started at nucleotide 2189 (corresponding to amino acid 667) and ended at the termination codon; made in house; host or cells: Sf9 insect cells (baculovirus)
Summary of the method: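 Potency came from triplicate 16-point half-log titrations starting at 200 uM, with IC50 fitted from % inhibition against log concentration, or % inhibition at 2 μM otherwise. Reaction: Sf9-made GST–EGFR cytoplasmic region (aa 667 onward), biotin-polyGluTyr, 5 μM ATP with 33P tracer, pH 8.0 Tris/Mg/vanadate/DTT, 30 °C for 1 h; captured on streptavidin Flashplates and counted.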

c-Src kinase (human) = target: T2, c-Src kinase (human) (Homo sapiens, UniProt P12931); test: c-Src Kinase Assay; assay type: biochemical; details: test concentration of 2 μM; multiple values are separate assay results
T2 construct: purchased Upstate Biotechnology, Lake Placid, N.Y
T2 sequence (P12931 whole entry): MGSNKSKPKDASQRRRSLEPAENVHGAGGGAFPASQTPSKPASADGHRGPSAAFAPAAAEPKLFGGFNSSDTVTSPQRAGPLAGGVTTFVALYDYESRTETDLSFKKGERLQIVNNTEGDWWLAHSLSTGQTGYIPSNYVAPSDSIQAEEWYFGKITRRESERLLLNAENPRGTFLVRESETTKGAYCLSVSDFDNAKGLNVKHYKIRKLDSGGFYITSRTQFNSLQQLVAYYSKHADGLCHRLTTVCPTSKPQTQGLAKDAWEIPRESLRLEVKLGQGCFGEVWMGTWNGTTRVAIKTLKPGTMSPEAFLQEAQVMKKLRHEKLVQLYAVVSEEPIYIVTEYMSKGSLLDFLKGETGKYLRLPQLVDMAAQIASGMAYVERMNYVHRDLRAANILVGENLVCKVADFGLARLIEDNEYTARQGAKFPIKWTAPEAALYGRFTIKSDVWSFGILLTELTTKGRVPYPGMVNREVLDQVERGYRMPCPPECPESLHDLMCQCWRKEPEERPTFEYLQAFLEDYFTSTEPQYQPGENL
Summary of the method: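 Inhibition was read as 33P incorporation, counted on P30 filtermats, after a 40 min, 30° C reaction. Human c-Src acted on 100 μM Cdc2 peptide with 5 μM ATP (final), pH 7.0 MOPS/MgCl2. Values are percent inhibition at 2 μM compound, or IC50 where determined.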

HER-2 = target: T3, HER-2 (Homo sapiens, UniProt P04626); test: HER-2 Kinase Assay; assay type: biochemical; details: for IC50: value in parentheses
T3 construct: His6 with thrombin site (N); purchased Proqinase (Freiburg, Germany)
T3 sequence (P04626 679-1255): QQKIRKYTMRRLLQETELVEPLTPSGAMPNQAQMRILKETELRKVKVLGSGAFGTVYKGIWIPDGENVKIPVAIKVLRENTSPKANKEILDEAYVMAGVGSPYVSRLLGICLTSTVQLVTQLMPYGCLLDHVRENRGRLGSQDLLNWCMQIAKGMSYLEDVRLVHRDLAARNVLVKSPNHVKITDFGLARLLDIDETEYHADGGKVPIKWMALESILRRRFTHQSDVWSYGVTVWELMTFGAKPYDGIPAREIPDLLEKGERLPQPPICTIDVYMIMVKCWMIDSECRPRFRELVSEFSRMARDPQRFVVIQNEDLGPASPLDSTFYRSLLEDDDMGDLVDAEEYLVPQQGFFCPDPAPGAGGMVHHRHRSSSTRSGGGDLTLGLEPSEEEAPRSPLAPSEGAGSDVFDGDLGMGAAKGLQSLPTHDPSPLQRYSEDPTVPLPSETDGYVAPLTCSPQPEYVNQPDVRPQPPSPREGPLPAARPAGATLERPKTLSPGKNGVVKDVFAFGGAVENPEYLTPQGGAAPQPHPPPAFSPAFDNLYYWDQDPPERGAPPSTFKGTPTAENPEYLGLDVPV
Summary of the method: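 Read-out was scintillation counting of 33P incorporated into biotinylated polyGluTyr captured on streptavidin plates. Reactions ran 1 h at 30 °C with GST-fused HER-2 residues 679–1255, 1 μM ATP, Mn2+ and Mg2+ at pH 7.5; data given as percent inhibition at 1 μM, with IC50 where determined.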

Lyn kinase (human) = target: T4, Lyn kinase (human) (Homo sapiens, UniProt P07948); test: Lyn Kinase Assay; assay type: biochemical; details: test concentration of 2 μM
T4 construct: purchased Upstate Biotechnology, Lake Placid, N.Y
T4 sequence (P07948 whole entry): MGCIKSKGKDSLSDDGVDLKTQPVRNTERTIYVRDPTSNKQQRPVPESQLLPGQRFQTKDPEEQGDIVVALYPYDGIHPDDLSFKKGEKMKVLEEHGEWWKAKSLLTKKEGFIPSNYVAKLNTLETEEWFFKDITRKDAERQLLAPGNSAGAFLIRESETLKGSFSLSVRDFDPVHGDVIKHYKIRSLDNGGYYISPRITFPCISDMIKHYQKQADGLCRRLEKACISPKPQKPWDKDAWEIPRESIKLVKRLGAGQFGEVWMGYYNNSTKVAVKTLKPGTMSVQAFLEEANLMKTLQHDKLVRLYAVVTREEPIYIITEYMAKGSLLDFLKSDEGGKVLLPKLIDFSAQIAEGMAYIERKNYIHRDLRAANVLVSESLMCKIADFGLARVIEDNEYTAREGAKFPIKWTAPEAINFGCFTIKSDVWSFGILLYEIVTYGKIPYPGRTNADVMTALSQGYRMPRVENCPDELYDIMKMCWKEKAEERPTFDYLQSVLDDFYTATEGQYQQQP
Summary of the method: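 Radiometric filter-binding assay with recombinant human Lyn, poly(Glu,Tyr) substrate (0.1 mg/mL final), 5 μM ATP plus γ-33P-ATP in MOPS pH 7.5/Mg acetate buffer; 40 min at 30 °C, stopped with phosphoric acid, counted by scintillation. Reported as percent inhibition at 2 μM, with IC50 (μM) where determined.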

N87 cells = test: In Vivo Models - Inhibition of Tumor Growth, N87; details: Mus musculus, po, 720 h, 100 mg/kg, oral daily for 30 days, athymic mice; read-out: percent inhibition N87
Experimental: In Vivo Models—Inhibition of Tumor Growth
The ability of test compounds to inhibit unregulated growth of human tumor cells in vivo was evaluated by implanting human tumor cells into the hindflank of athymic mice, administering a test compound and then quantifying any change in tumor size.
Human epidermoid A431 carcinoma, N87 cells and BT474 cells were implanted subcutaneously into the hindflank of female athymic mice (Charles River) and allowed to grow for 6-10 days. After a measurable tumor was established (as determined by baseline caliper measurement), the animal was administered an oral dose of the test compound daily for a period of 30 days. Tumor size was measured every five days and the degree of inhibition was determined by comparing drug-treated animals to vehicle-treated animals.
Variations of this method are intended to include intraperitoneal injection or intravenous infusion as the route of administration and administration of the test compound either alone or in a combination therapy.
The inhibition of tumor growth values are shown in Table 8 at various test concentrations, as indicated. For compounds with multiple values at one test concentration, each value represents a separate assay result.

T1 sequence (P00533 669-1210 limits assumed): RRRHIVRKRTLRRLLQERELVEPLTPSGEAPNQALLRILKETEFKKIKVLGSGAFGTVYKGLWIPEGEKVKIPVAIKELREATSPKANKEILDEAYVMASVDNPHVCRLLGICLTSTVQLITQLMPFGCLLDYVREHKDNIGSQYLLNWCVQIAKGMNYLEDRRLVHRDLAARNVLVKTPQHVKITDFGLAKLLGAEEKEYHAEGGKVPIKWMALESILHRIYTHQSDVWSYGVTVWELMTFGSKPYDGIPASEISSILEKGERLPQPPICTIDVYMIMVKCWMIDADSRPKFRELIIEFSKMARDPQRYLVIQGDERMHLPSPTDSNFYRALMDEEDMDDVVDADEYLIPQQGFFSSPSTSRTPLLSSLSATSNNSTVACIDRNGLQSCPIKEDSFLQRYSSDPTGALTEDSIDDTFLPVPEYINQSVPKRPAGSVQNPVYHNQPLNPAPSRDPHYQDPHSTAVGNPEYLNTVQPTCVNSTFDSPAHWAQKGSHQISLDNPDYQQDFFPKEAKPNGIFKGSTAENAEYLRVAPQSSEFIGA

IC50 (EGFR) [nM] | inhibition at 2 µM (c-Src kinase (human)) [%] | inhibition at 1 µM (HER-2; test concentration of 1 μM) [%] | IC50 (HER-2) [nM] | inhibition at 2 µM (Lyn kinase (human)) [%] | inhibition at 2 µM (EGFR) [%] | Structure (SMILES) | inhibition in vivo at 100 mg/kg (N87 cells) [%]
28 | 18 | 88 | 327 | 41 |  | O=C(Nc1ccc(CN2CCCCC2)cc1)c1sc2ncnc3c2c1NC(=O)N3c1ccc(F)c(Br)c1 [Cpd 155, 5-(3-bromo-4-fluoro-phenyl)-4-oxo-4,5-dihydro-3H-1-thia-3,5,6,8-tetraaza-acenaphthylene-2-carboxylic acid (4-piperidin-1-ylmethyl-phenyl)-amide] | 
18 | 26 |  | 278 | 55 |  | COc1cc(NC(=O)c2sc3ncnc4c3c2NC(=O)N4c2ccc(Cc3ccccc3)cc2)ccc1OCCN1CCCCC1 [Cpd 163, 5-(4-benzyl-phenyl)-4-oxo-4,5-dihydro-3H-1-thia-3,5,6,8-tetraaza-acenaphthylene-2-carboxylic acid [3-methoxy-4-(2-piperidin-1-yl-ethoxy)-phenyl]-amide] | 
11 | 25 |  | 103 | 35 |  | O=C(Nc1ccc(CN2CCCCC2)cc1)c1sc2ncnc3c2c1NC(=O)N3c1ccc(Cc2ccccc2)cc1 [Cpd 164, 5-(4-benzyl-phenyl)-4-oxo-4,5-dihydro-3H-1-thia-3,5,6,8-tetraaza-acenaphthylene-2-carboxylic acid (4-piperidin-1-ylmethyl-phenyl)-amide] | 
23 | 29 |  | 157 | 39 |  | O=C(Nc1ccc(CN2CCOCC2)cc1)c1sc2ncnc3c2c1NC(=O)N3c1ccc(Cc2ccccc2)cc1 [Cpd 165, 5-(4-benzyl-phenyl)-4-oxo-4,5-dihydro-3H-1-thia-3,5,6,8-tetraaza-acenaphthylene-2-carboxylic acid (4-morpholin-4-ylmethyl-phenyl)-amide] | 
21 | 22 |  | 171 | 51 |  | O=C(Nc1ccc(CCN2CCCCC2)cc1)c1sc2ncnc3c2c1NC(=O)N3c1ccc(Oc2ccccc2)cc1 [Cpd 166, 4-oxo-5-(4-phenoxy-phenyl)-4,5-dihydro-3H-1-thia-3,5,6,8-tetraaza-acenaphthylene-2-carboxylic acid [4-(2-piperidin-1-yl-ethyl)-phenyl]-amide] | 
20 | 35 |  | 129 | 51 |  | COc1cc(NC(=O)c2sc3ncnc4c3c2NC(=O)N4c2ccc(Oc3ccccc3)cc2)ccc1OCCN1CCOCC1 [Cpd 167, 4-oxo-5-(4-phenoxy-phenyl)-4,5-dihydro-3H-1-thia-3,5,6,8-tetraaza-acenaphthylene-2-carboxylic acid [3-methoxy-4-(2-morpholin-4-yl-ethoxy)-phenyl]-amide] | 
452 | -21 |  | 12200 | 28 |  | O=C(O)c1sc2ncnc3c2c1NC(=O)N3c1ccc(Oc2ccccc2)cc1 [Cpd 168, 4-oxo-5-(4-phenoxy-phenyl)-4,5-dihydro-3H-1-thia-3,5,6,8-tetraaza-acenaphthylene-2-carboxylic acid] | 
 | 4 |  | > 100000 | 12 | 11 | C[C@H](c1ccccc1)N1C(=O)Nc2c(C(=O)O)sc3ncnc1c23 [Cpd 170, 4-oxo-5-[(1R)-1-phenyl-ethyl]-4,5-dihydro-3H-1-thia-3,5,6,8-tetraaza-acenaphthylene-2-carboxylic acid] | 
 | -8 |  | > 100000 | -5 | -3 | C[C@H](c1ccccc1)N1C(=O)Nc2c(C(=O)NC3CCN(C)CC3)sc3ncnc1c23 [Cpd 173, 4-oxo-5-[(1R)-1-phenyl-ethyl]-4,5-dihydro-3H-1-thia-3,5,6,8-tetraaza-acenaphthylene-2-carboxylic acid (1-methyl-piperidin-4-yl)-amide] | 
130 | -1 |  | 515 | 0 |  | O=C(Nc1ccc(CN2CCOCC2)cc1)c1sc2ncnc3c2c1NC(=O)N3c1ccc2c(cnn2Cc2cccc(F)c2)c1 [Cpd 175, 5-[1-(3-fluoro-benzyl)-1H-indazol-5-yl]-4-oxo-4,5-dihydro-3H-1-thia-3,5,6,8-tetraaza-acenaphthylene-2-carboxylic acid (4-morpholin-4-ylmethyl-phenyl)-amide] | 
41 |  |  | 28 |  |  | Cc1cc(NC(=O)c2sc3ncnc4c3c2NC(=O)N4c2ccc(Oc3ccccc3)cc2)ccc1CN1CCOCC1 [Cpd 232, 4-oxo-5-(4-phenoxy-phenyl)-4,5-dihydro-3H-1-thia-3,5,6,8-tetraaza-acenaphthylene-2-carboxylic acid (3-methyl-4-morpholin-4-ylmethyl-phenyl)-amide] | 30.3
96 |  |  | 24 |  |  | CN(C)c1cc(NC(=O)c2sc3ncnc4c3c2NC(=O)N4c2ccc(Oc3ccccc3)cc2)ccc1CN1CCOCC1 [Cpd 257, 4-oxo-5-(4-phenoxy-phenyl)-4,5-dihydro-3H-1-thia-3,5,6,8-tetraaza-acenaphthylene-2-carboxylic acid (3-dimethylamino-4-morpholin-4-ylmethyl-phenyl)-amide] | 71.2
21 |  |  | 11 |  |  | NC1CCN(Cc2ccc(NC(=O)c3sc4ncnc5c4c3NC(=O)N5c3ccc(Oc4ccccc4)cc3)cc2)CC1 [Cpd 259, 4-oxo-5-(4-phenoxy-phenyl)-4,5-dihydro-3H-1-thia-3,5,6,8-tetraaza-acenaphthylene-2-carboxylic acid [4-(4-amino-piperidin-1-ylmethyl)-phenyl]-amide] | 46.8
35 |  |  | 19 |  |  | O=C(Nc1ccc(CN2CCOCC2)c(O)c1)c1sc2ncnc3c2c1NC(=O)N3c1ccc(Oc2ccccc2)cc1 [Cpd 262, 4-oxo-5-(4-phenoxy-phenyl)-4,5-dihydro-3H-1-thia-3,5,6,8-tetraaza-acenaphthylene-2-carboxylic acid (3-hydroxy-4-morpholin-4-ylmethyl-phenyl)-amide] | 70.5
 |  |  | 523 |  | 83 | O=C(Nc1ccc(CN2CCC(F)(F)CC2)cc1)c1sc2ncnc3c2c1NC(=O)N3c1ccc(Oc2ccccc2)cc1 [Cpd 263, 4-oxo-5-(4-phenoxy-phenyl)-4,5-dihydro-3H-1-thia-3,5,6,8-tetraaza-acenaphthylene-2-carboxylic acid [4-(4,4-difluoro-piperidin-1-ylmethyl)-phenyl]-amide] | 18.1

— patent US7579356B2, “Thia-tetraazaacenaphthylene kinase inhibitors” (Janssen Pharmaceutica NV, priority 2005, dated 2009)
